Reference: patent publication US20060039869A1, “Intranasal delivery of antipsychotic drugs” (priority 2004, published 2006)
Where “and” joins values, the source holds several entries; their conditions need not be identical. Equal values may be shown once. Read-outs that look alike come from different tables or passages of the source.

How the values were obtained:
[1] = for Tmax: healthy subjects n=4, median (range)
[2] = cited from earlier work
[3] = clinical; conditions: human, plasma, 2.5 mg; for Cmax: n=4, mean (CV %)

Tmax ([1]; IM 2.5 mg): 0.625 (0.25-16) h
Cmax after intranasal dose compared with intramuscular dose ([1]; IN 2.5 mg vs IM 2.5 mg): slightly higher
Tmax ([1]; IN 2.5 mg): 0.25 (0.12-0.5) h
Cmax, individual subjects ([1]; IN 2.5 mg, single subjects): 16.2 ng/mL and 7.5 to 7.9 ng/mL
half-lives, intravenous and intranasal ([1]; IV vs IN 2.5 mg): similar
AUC(0-inf) ([3]; both, im): 81.8 ng·h/mL
AUC(0-t) ([3]; both, im): 59.7 ng·h/mL
MRT ([3]; both, im): 16.1 h
Tmax ([3]; both, im): 0.625 h
Vd/F ([3]; both, im): 1360 L
half-life ([3]; both, im): 28.8 h
Cmax ([3]; both, im, IM 2.5 mg): 8.42 ng/mL
bioavailability ([3]; both, intramuscular): 134%
AUC(0-inf) ([3]; both, iv): 60.4 ng·h/mL
AUC(0-t) ([3]; both, iv): 50.8 ng·h/mL
MRT ([3]; both, iv): 12.7 h
Tmax ([3]; both, iv): 0.25 h
Vd ([3]; both, iv): 934 L
half-life ([3]; both, iv): 17.1 h
Cmax ([3]; both, iv, IV 2.5 mg): 23.3 ng/mL
AUC(0-inf) ([3]; both, other: intranasal): 37.9 ng·h/mL
AUC(0-t) ([3]; both, other: intranasal): 31.7 ng·h/mL
MRT ([3]; both, other: intranasal): 12.9 h
Tmax ([3]; both, other: intranasal): 0.25 h
Vd/F ([3]; both, other: intranasal): 1580 L
bioavailability ([3]; both, other: intranasal): 63.8%
half-life ([3]; both, other: intranasal): 16.9 h
Cmax ([3]; both, other: intranasal, IN 2.5 mg): 9.8 ng/mL
Tmax ([3]; im): 16 h
Structure (SMILES): O=C(CCCN1CCC(O)(c2ccc(Cl)cc2)CC1)c1ccc(F)cc1 [haloperidol lactate, haloperidol]
time at which haloperidol concentrations reached a peak, individual subjects ([1]; IN 2.5 mg, single subjects): 7.5 min and 15 min and 30 min
time of peak plasma concentration ([2]; intramuscular administration): approximately 20 minutes
absolute bioavailability ([2]; oral administration): approximately 65%
